Test results published in paper PMC2801547 (Journal of medicinal chemistry, 2009).

How the values were obtained:
[1] = tested on: WiDr colorectal adenocarcinoma cells; test: cells; conditions: Homo sapiens, 72 h
[2] = tested on: panel of human cancer cell lines; conditions: read-out: IC50 in all cell lines tested; all tumor lines examined; cited from earlier work
[3] = tested on: pTN24 dual-reporter splicing construct in 293T cells; test: Dual-reporter cell-based splicing assay; conditions: 5 hours treatment
[4] = cited from earlier work
several tumor cell lines = conditions: cited from earlier work
[5] = tested on: JeKo-1 mantle cell lymphoma tumors; conditions: JeKo-1 tumor-bearing mice, Supplemental Figure S2
[6] = NOD/SCID mice, 5-50 mg/kg daily for five days, IV and IP, day 5
[7] = tested on: normal human foreskin fibroblasts (HFF); test: cells; conditions: Fibroblast, 72 h

For `CC(=O)O[C@@H](C)/C=C\C(=O)N[C@H]1CC[C@@H](C/C=C(C)/C=C/[C@@H]2C[C@]3(CO3)CC(C)(C)O2)CC1` [compound 3a], the IC50 [1] is listed as 2 µM and the IC50 [2] is listed as less than 5 µM.
For `CC(/C=C/[C@@H]1C[C@]2(CO2)CC(C)(C)O1)=C\C[C@H]1CC[C@@H](NC(=O)/C=C\[C@H](C)O)CC1` [compound 4], the “effect on splicing (ratio of luciferase to β-galactosidase activity)” value [3] was “altered splicing only very slightly at the highest concentration tested”.
In the case of `CC[C@H](O)[C@@H](C)[C@H]1O[C@@H]1C[C@@](C)(O)/C=C/C=C(\C)[C@H]1OC(=O)C[C@H](O)CC[C@@](C)(O)[C@@H](OC(=O)N2CCN(C3CCCCCC3)CC2)/C=C/[C@@H]1C` [compound 2], the “activity relative to pladienolide B” value [4] is listed as “four-fold less active than pladienolide B”.
With `CC(=O)N[C@H]1CO[C@@H](C/C=C(C)/C=C/[C@@H]2C[C@]3(CO3)CC(C)(C)O2)OC1` [compound 27, N-((2s,5R)-2-((2E,4E)-5-((3R,5S)-7,7-dimethyl-1,6-dioxaspiro[2.5]octan-5-yl) -3-methylpenta-2,4-dienyl)-1,3-dioxan-5-yl)acetamide] the “effect on splicing (ratio of luciferase to β-galactosidase activity)” value [3] was “had no effect”.
For `CC(=O)O[C@@H](C)/C=C\C(=O)N[C@@H]1C[C@H](C)[C@H](C/C=C(C)/C=C/[C@H]2O[C@](C)(O)C[C@@]3(CO3)[C@@H]2O)O[C@@H]1C` [compound 1], the “cytotoxicity IC50s” value (several tumor cell lines; several tumor cell lines) is given as “low nanomolar range” and the GI50s (several tumor cell lines; several tumor lines) is given as “single-digit nanomolar range”.
For `CC(/C=C/[C@@H]1C[C@]2(CO2)CC(C)(C)O1)=C\C[C@H]1OC[C@@H](NC(=O)/C=C\[C@H](C)OC(=O)C(C)C)CO1` [compound 26, (S,Z)-5-((2R,5R)-2-((2E,4E)-5-((3R,5S)-7,7-dimethyl-1,6-dioxaspiro[2.5]octan-5-yl)-3-methylpenta-2,4-dienyl)-1,3-dioxan-5-ylamino)-5-oxopent-3-en-2-yl isobutyrate], the “effect on splicing (ratio of luciferase to β-galactosidase activity)” value [3] was “selectively inhibit splicing” and the “in vivo anti-cancer activity” value [5] was “robust anti-cancer activity that was comparable to compound 5”.
In the case of `CC(/C=C/[C@@H]1C[C@]2(CO2)CC(C)(C)O1)=C\C[C@H]1CC[C@@H](NC(=O)/C=C\[C@H](C)OC(=O)C(C)C)CC1` [compound 5, (S,Z)-5-((1R,4R)-4-((2E,4E)-5-((3R,5S)-7,7-dimethyl-1,6-dioxaspiro[2.5]octan-5-yl)-3-methylpenta-2,4-dienyl)cyclohexylamino)-5-oxopent-3-en-2-yl isobutyrate], the “blood cell counts (CBC) versus vehicle-only mice” value [6] is reported as “No significant differences in blood cell counts” and the IC50 [7] is reported as greater than 10 µM.
